The NIST ThermoML archive (doi:10.1016/j.jct.2007.07.005)
Numbers after ± are expanded uncertainties.

Experiment: xn = mol fraction of the nth substance listed
Details: Fluid (supercritical or subcritical phases), vibrating tube

CCCCCO [pentan-1-ol] + O=C=O
Details	mass density [kg/m3]
352.79 K, 11040 kPa, x2 = 0.4651	785.81 ± 0.44
352.79 K, 12030 kPa, x2 = 0.4651	787.74 ± 0.44
352.79 K, 13014 kPa, x2 = 0.4651	789.67 ± 0.44
352.79 K, 13996 kPa, x2 = 0.4651	791.51 ± 0.44
352.79 K, 15009 kPa, x2 = 0.4651	793.37 ± 0.45
352.79 K, 16021 kPa, x2 = 0.4651	795.22 ± 0.45
352.79 K, 17023 kPa, x2 = 0.4651	797.01 ± 0.45
352.79 K, 18036 kPa, x2 = 0.4651	798.78 ± 0.45
352.79 K, 19033 kPa, x2 = 0.4651	800.49 ± 0.45
352.79 K, 20034 kPa, x2 = 0.4651	802.15 ± 0.45
352.79 K, 21019 kPa, x2 = 0.4651	803.78 ± 0.45
352.79 K, 22005 kPa, x2 = 0.4651	805.38 ± 0.45
352.79 K, 23048 kPa, x2 = 0.4651	807.02 ± 0.45
352.79 K, 24005 kPa, x2 = 0.4651	808.54 ± 0.45
352.8 K, 9062 kPa, x2 = 0.3624	787.17 ± 0.44
352.8 K, 10017 kPa, x2 = 0.3624	788.44 ± 0.44
352.8 K, 10962 kPa, x2 = 0.3624	789.67 ± 0.44
352.8 K, 12014 kPa, x2 = 0.3624	790.98 ± 0.44
352.8 K, 13057 kPa, x2 = 0.3624	792.31 ± 0.44
352.8 K, 13992 kPa, x2 = 0.3624	793.46 ± 0.44
352.8 K, 14992 kPa, x2 = 0.3624	794.66 ± 0.44
352.8 K, 16050 kPa, x2 = 0.3624	795.91 ± 0.44
352.8 K, 16062 kPa, x2 = 0.8573	704.48 ± 0.73
352.8 K, 17018 kPa, x2 = 0.3624	797.04 ± 0.44
352.8 K, 17045 kPa, x2 = 0.8573	717.71 ± 0.56
352.8 K, 17979 kPa, x2 = 0.3624	798.17 ± 0.44
352.8 K, 18036 kPa, x2 = 0.8573	728.91 ± 0.54
352.8 K, 19024 kPa, x2 = 0.8573	738.63 ± 0.53
352.8 K, 19050 kPa, x2 = 0.3624	799.37 ± 0.45
352.8 K, 20029 kPa, x2 = 0.3624	800.46 ± 0.45
352.8 K, 20047 kPa, x2 = 0.8573	747.71 ± 0.52
352.8 K, 21012 kPa, x2 = 0.8573	755.39 ± 0.51
352.8 K, 21035 kPa, x2 = 0.3624	801.59 ± 0.45
352.8 K, 21985 kPa, x2 = 0.3624	802.63 ± 0.45
352.8 K, 22013 kPa, x2 = 0.8573	762.78 ± 0.5
352.8 K, 23021 kPa, x2 = 0.3624	803.75 ± 0.45
352.8 K, 23034 kPa, x2 = 0.8573	769.78 ± 0.5
352.8 K, 24022 kPa, x2 = 0.3624	804.82 ± 0.45
352.8 K, 24038 kPa, x2 = 0.8573	776.16 ± 0.52
352.8 K, 25026 kPa, x2 = 0.3624	805.9 ± 0.45
352.8 K, 25052 kPa, x2 = 0.8573	782.21 ± 0.48
352.81 K, 3095 kPa, x2 = 0.0816	772.79 ± 0.43
352.81 K, 4022 kPa, x2 = 0.0816	773.74 ± 0.43
352.81 K, 5003 kPa, x2 = 0.0816	774.75 ± 0.43
352.81 K, 5979 kPa, x2 = 0.0816	775.73 ± 0.44
352.81 K, 7007 kPa, x2 = 0.0816	776.72 ± 0.44
352.81 K, 7981 kPa, x2 = 0.0816	777.7 ± 0.44
352.81 K, 9053 kPa, x2 = 0.0816	778.72 ± 0.44
352.81 K, 10025 kPa, x2 = 0.0816	779.66 ± 0.44
352.81 K, 11031 kPa, x2 = 0.0816	780.6 ± 0.44
352.81 K, 11999 kPa, x2 = 0.0816	781.51 ± 0.44
352.81 K, 13023 kPa, x2 = 0.0816	782.45 ± 0.44
352.81 K, 14012 kPa, x2 = 0.0816	783.34 ± 0.44
352.81 K, 15005 kPa, x2 = 0.7274	763.67 ± 0.76
352.81 K, 15006 kPa, x2 = 0.0816	784.24 ± 0.44
352.81 K, 15032 kPa, x2 = 0.9216	609.93 ± 0.77
352.81 K, 15993 kPa, x2 = 0.0816	785.1 ± 0.44
352.81 K, 16001 kPa, x2 = 0.9216	637.91 ± 0.73
352.81 K, 16021 kPa, x2 = 0.7274	769.33 ± 0.47
352.81 K, 17044 kPa, x2 = 0.9216	660.91 ± 0.66
352.81 K, 17045 kPa, x2 = 0.7274	774.53 ± 0.47
352.81 K, 17064 kPa, x2 = 0.0816	786 ± 0.44
352.81 K, 18013 kPa, x2 = 0.0816	786.86 ± 0.44
352.81 K, 18017 kPa, x2 = 0.9216	678.45 ± 0.63
352.81 K, 18023 kPa, x2 = 0.7274	779.16 ± 0.47
352.81 K, 18992 kPa, x2 = 0.0816	787.69 ± 0.45
352.81 K, 19030 kPa, x2 = 0.9216	693.91 ± 0.6
352.81 K, 19050 kPa, x2 = 0.7274	783.67 ± 0.46
352.81 K, 19999 kPa, x2 = 0.7274	787.59 ± 0.46
352.81 K, 20017 kPa, x2 = 0.9216	707.27 ± 0.58
352.81 K, 20032 kPa, x2 = 0.0816	788.58 ± 0.45
352.81 K, 20998 kPa, x2 = 0.0816	789.4 ± 0.45
352.81 K, 21041 kPa, x2 = 0.9216	719.46 ± 0.56
352.81 K, 21063 kPa, x2 = 0.7274	791.77 ± 0.46
352.81 K, 22012 kPa, x2 = 0.0816	790.22 ± 0.45
352.81 K, 22020 kPa, x2 = 0.7274	795.33 ± 0.46
352.81 K, 22043 kPa, x2 = 0.9216	730.24 ± 0.55
352.81 K, 23032 kPa, x2 = 0.9216	740.03 ± 0.49
352.81 K, 23038 kPa, x2 = 0.7274	798.99 ± 0.46
352.81 K, 23043 kPa, x2 = 0.0816	791.09 ± 0.45
352.81 K, 23982 kPa, x2 = 0.7274	802.22 ± 0.46
352.81 K, 24064 kPa, x2 = 0.0816	791.93 ± 0.45
352.81 K, 25028 kPa, x2 = 0.0816	792.72 ± 0.45
352.81 K, 25068 kPa, x2 = 0.7274	805.8 ± 0.45
352.86 K, 7013 kPa, x2 = 0.1347	777.29 ± 0.44
352.86 K, 8003 kPa, x2 = 0.1347	778.24 ± 0.44
352.86 K, 9042 kPa, x2 = 0.1347	779.29 ± 0.44
352.86 K, 9997 kPa, x2 = 0.1347	780.21 ± 0.44
352.86 K, 11043 kPa, x2 = 0.1347	781.23 ± 0.44
352.86 K, 12025 kPa, x2 = 0.1347	782.2 ± 0.44
352.86 K, 13003 kPa, x2 = 0.1347	783.16 ± 0.44
352.86 K, 14006 kPa, x2 = 0.1347	784.13 ± 0.44
352.86 K, 15015 kPa, x2 = 0.1347	785.07 ± 0.44
352.86 K, 16005 kPa, x2 = 0.1347	786.01 ± 0.44
352.86 K, 17031 kPa, x2 = 0.1347	786.94 ± 0.44
352.86 K, 18022 kPa, x2 = 0.1347	787.86 ± 0.44
352.86 K, 19009 kPa, x2 = 0.1347	788.74 ± 0.45
352.86 K, 20022 kPa, x2 = 0.1347	789.63 ± 0.45
352.86 K, 21024 kPa, x2 = 0.1347	790.52 ± 0.45
352.86 K, 21995 kPa, x2 = 0.1347	791.37 ± 0.45
352.86 K, 23030 kPa, x2 = 0.1347	792.28 ± 0.45
352.86 K, 24029 kPa, x2 = 0.1347	793.15 ± 0.45
352.86 K, 25004 kPa, x2 = 0.1347	793.98 ± 0.45
352.88 K, 14062 kPa, x2 = 0.6054	787.97 ± 0.66
352.88 K, 15034 kPa, x2 = 0.6054	790.53 ± 0.45
352.88 K, 16029 kPa, x2 = 0.6054	793.07 ± 0.45
352.88 K, 17048 kPa, x2 = 0.6054	795.6 ± 0.45
352.88 K, 18046 kPa, x2 = 0.6054	798.05 ± 0.45
352.88 K, 19026 kPa, x2 = 0.6054	800.32 ± 0.45
352.88 K, 20030 kPa, x2 = 0.6054	802.6 ± 0.45
352.88 K, 21058 kPa, x2 = 0.6054	804.93 ± 0.45
352.88 K, 22056 kPa, x2 = 0.6054	807.03 ± 0.45
352.88 K, 23049 kPa, x2 = 0.6054	809.11 ± 0.45
352.88 K, 24065 kPa, x2 = 0.6054	811.21 ± 0.45
352.88 K, 25092 kPa, x2 = 0.6054	813.29 ± 0.45
362.58 K, 20013 kPa, x2 = 0.9757	578.28 ± 0.72
362.58 K, 21042 kPa, x2 = 0.9757	600.7 ± 0.7
362.58 K, 22020 kPa, x2 = 0.9757	619.68 ± 0.66
362.58 K, 23010 kPa, x2 = 0.9757	637.03 ± 0.64
362.58 K, 24034 kPa, x2 = 0.9757	653.33 ± 0.62
362.58 K, 25047 kPa, x2 = 0.9757	667.94 ± 0.58
362.59 K, 517 kPa, x2 = 0	759.7 ± 0.43
362.59 K, 1023 kPa, x2 = 0	760.25 ± 0.43
362.59 K, 2005 kPa, x2 = 0	761.26 ± 0.43
